# Data from US12617783B2, “Heterocyclic GLP-1R agonists” (BIOMEA FUSION, INC., priority 2024, dated 2026).
# Molecular target: T1, human GLP-1R (Homo sapiens, UniProt P43220)
# T1 construct: host or cells: HEK293
# Test: GLP-1R cAMP assay (Example B1a, HTRF, 30 min at room temperature)
# Assay type: cell-based
# Conditions: cAMP accumulation in HEK293 expressing human GLP-1R, no BETP, 30 min room temperature (Method B1a, compounds ID 1-609), Table 1; read-out: EC50
# Procedure, shortened: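 Competitive HTRF read-out of cAMP after 30 min room-temperature stimulation, BETP absent, of human GLP-1R-HEK293 cells (1,000/well) in HEPES buffer with 500 μM IBMX and 0.1% BSA. Activation normalised to GLP-1(7-37) positive control. EC50 from 4-parameter non-linear regression.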
# T1 sequence (P43220 24-463): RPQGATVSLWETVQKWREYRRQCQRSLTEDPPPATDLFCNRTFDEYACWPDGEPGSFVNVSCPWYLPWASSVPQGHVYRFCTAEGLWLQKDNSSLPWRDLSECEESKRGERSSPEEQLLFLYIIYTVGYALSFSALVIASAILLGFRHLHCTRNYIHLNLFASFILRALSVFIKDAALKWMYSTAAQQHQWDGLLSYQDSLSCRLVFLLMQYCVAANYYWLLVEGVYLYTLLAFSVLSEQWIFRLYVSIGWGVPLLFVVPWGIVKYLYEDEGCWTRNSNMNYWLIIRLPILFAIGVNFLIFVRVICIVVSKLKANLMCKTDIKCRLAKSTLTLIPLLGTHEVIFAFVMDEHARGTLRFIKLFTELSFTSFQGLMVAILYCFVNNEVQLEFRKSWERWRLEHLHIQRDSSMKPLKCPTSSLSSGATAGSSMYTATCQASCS
row,SMILES,EC50 [µM]
1,"Cc1cc(-n2nc3c(c2-n2ccn(-c4ccc5c(cnn5C)c4F)c2=O)[C@@H]2CCC[C@H](C3)N2S(=O)(=O)c2cc3cc(N4CCOC5(CC5)C4)ccc3n2[C@]2(c3noc(=O)[nH]3)C[C@@H]2C)cc(C)c1F [Compound 538, 3-[(1R,2S)-1-[2-[[(1S,8R)-4-(4-fluoro-3,5-dimethyl-phenyl)-3-[3-(4-fluoro-1-methyl-indazol-5-yl)-2-oxo-imidazol-1-yl]-4,5,12-triazatricyclo[6.3.1.02,6]dodeca-2,5-dien-12-yl]sulfonyl]-5-(4-oxa-7-azaspiro[2.5]octan-7-yl)indol-1-yl]-2-methyl-cyclopropyl]-4H-1,2,4-oxadiazol-5-one]",≥ 10
2,"Cc1cc(-n2nc3c(c2-n2ccn(-c4ccc5c(cnn5C)c4F)c2=O)[C@@H]2CC[C@H](C3)N2C(=O)c2cc3cc([C@H]4CCOC5(CC5)C4)ccc3n2[C@@]2(c3noc(=O)[nH]3)C[C@H]2C)cc(C)c1F [Compound 542, 3-((1S,2R)-1-(2-((4S,7R)-3-(3-(4-fluoro-1-methyl-1H-indazol-5-yl)-2-oxo-2,3-dihydro-1H-imidazol-1-yl)-2-(4-fluoro-3,5-dimethylphenyl)-2,4,5,6,7,8-hexahydro-4,7-epiminocyclohepta [c]pyrazole-9-carbonyl)-5-((S)-4-oxaspiro[2.5]octan-7-yl)-1H-indol-1-yl)-2-methylcyclopropyl)-1,2,4-oxadiazol-5 (4H)-one]",1.62
3,"Cc1cc(-n2nc3c(c2-n2ccn(-c4ccc(C(=O)N(C)C5CC5)c(Cl)c4)c2=O)[C@@H]2CCC[C@H](C3)N2C(=O)c2cc3cc([C@H]4CCOC(C)(C)C4)ccc3n2[C@@]2(c3noc(=O)[nH]3)C[C@@H]2C)cc(C)c1F [Compound 543, 2-chloro-N-cyclopropyl-4-[3-[(1S,8R)-12-[5-[(4S)-2,2-dimethyltetrahydropyran-4-yl]-1-[(1S,2S)-2-methyl-1-(5-oxo-4H-1,2,4-oxadiazol-3-yl)cyclopropyl]indole-2-carbonyl]-4-(4-fluoro-3,5-dimethyl-phenyl)-4,5,12-triazatricyclo[6.3.1.02,6]dodeca-2,5-dien-3-yl]-2-oxo-imidazol-1-yl]-N-methyl-benzamide]",≥ 10
4,"CNC(=O)Cc1ccc(-n2ccn(-c3c4c(nn3-c3cc(C)c(F)c(C)c3)C[C@H]3CCC[C@@H]4N3C(=O)c3cc4cc([C@H]5CCOC(C)(C)C5)ccc4n3[C@@]3(c4noc(=O)[nH]4)C[C@@H]3C)c2=O)cc1 [Compound 544, 2-[4-[3-[(1S,8R)-12-[5-[(4S)-2,2-dimethyltetrahydropyran-4-yl]-1-[(1S,2S)-2-methyl-1-(5-oxo-4H-1,2,4-oxadiazol-3-yl)cyclopropyl]indole-2-carbonyl]-4-(4-luoro-3,5-dimethyl-phenyl)-f4,5,12-triazatricyclo[6.3.1.02,6]dodeca-2,5-dien-3-yl]-2-oxo-imidazol-1-yl]phenyl]-N-methyl-acetamide]",≥ 10
5,"Cc1cc(-n2nc3c(c2-n2ccn(-c4ccc(CS(C)(=O)=O)cc4)c2=O)[C@@H]2CCC[C@H](C3)N2C(=O)c2cc3cc([C@H]4CCOC(C)(C)C4)ccc3n2[C@@]2(c3noc(=O)[nH]3)C[C@@H]2C)cc(C)c1F [Compound 546, 3-[(1S,2S)-1-[5-[(4S)-2,2-dimethyltetrahydropyran-4-yl]-2-[(1S,8R)-4-(4-fluoro-3,5-dimethyl-phenyl)-3-[3-[4-(methylsulfonylmethyl)phenyl]-2-oxo-imidazol-1-yl]-4,5,12-triazatricyclo[6.3.1.02,6]dodeca-2,5-diene-12-carbonyl]indol-1-yl]-2-methyl-cyclopropyl]-4H-1,2,4-oxadiazol-5-one]",≥ 10
6,"Cc1cc(-n2nc3c(c2-n2ccn(-c4ccc(C(=O)N(C)C5CC5)c(F)c4F)c2=O)[C@@H]2CCC[C@H](C3)N2C(=O)c2cc3cc([C@H]4CCOC(C)(C)C4)ccc3n2[C@@]2(c3noc(=O)[nH]3)C[C@@H]2C)cc(C)c1F [Compound 547, N-cyclopropyl-4-[3-[(1S,8R)-12-[5-[(4S)-2,2-dimethyltetrahydropyran-4-yl]-1-[(1S,2S)-2-methyl-1-(5-oxo-4H-1,2,4-oxadiazol-3-yl)cyclopropyl]indole-2-carbonyl]-4-(4-fluoro-3,5-dimethyl-phenyl)-4,5,12-triazatricyclo[6.3.1.02,6]dodeca-2,5-dien-3-yl]-2-oxo-imidazol-1-yl]-2,3-difluoro-N-methyl-benzamide]",≥ 10
7,"Cc1cc(-n2nc3c(c2-n2ccn(-c4ccc5c(cnn5C)c4F)c2=O)[C@@H]2CCC[C@H](C3)N2S(=O)(=O)c2cc3cc([C@@H]4CCOC5(CC5)C4)ccc3n2[C@]2(c3noc(=O)[nH]3)C[C@@H]2C)cc(C)c1F [Compound 603, 3-[(1R,2S)-1-[2-[[(1S,8R)-4-(4-fluoro-3,5-dimethyl-phenyl)-3-[3-(4-fluoro-1-methyl-indazol-5-yl)-2-oxo-imidazol-1-yl]-4,5,12-triazatricyclo[6.3.1.02,6]dodeca-2,5-dien-12-yl]sulfonyl]-5-[(7R)-4-oxaspiro[2.5]octan-7-yl]indol-1-yl]-2-methyl-cyclopropyl]-4H-1,2,4-oxadiazol-5-one]",≥ 10

# The remaining lines, values ahead:
row,EC50 [µM],SMILES
1,1.34,"Cc1cc(-n2nc3c(c2-n2ccn(-c4ccc5c(cnn5C)c4F)c2=O)[C@@H]2CCC[C@H](C3)N2C(=O)c2c(C)c3cc([C@H]4CCOC(C)(C)C4)ccc3n2[C@@]2(c3noc(=O)[nH]3)C[C@@H]2C)cc(C)c1F [Compound 537, 3-[(1S,2S)-1-[5-[(4S)-2,2-dimethyltetrahydropyran-4-yl]-2-[(1S,8R)-4-(4-fluoro-3,5-dimethyl-phenyl)-3-[3-(4-fluoro-1-methyl-indazol-5-yl)-2-oxo-imidazol-1-yl]-4,5,12-triazatricyclo[6.3.1.02,6]dodeca-2,5-diene-12-carbonyl]-3-methyl-indol-1-yl]-2-methyl-cyclopropyl]-4H-1,2,4-oxadiazol-5-one]"
2,≥ 10,"Cc1cc(-n2nc3c(c2-n2ccn(-c4ccc5c(cnn5C)c4F)c2=O)[C@H]2CC[C@@H](C3)N2C(=O)c2cc3cc([C@H]4CCOC5(CC5)C4)ccc3n2[C@@]2(c3noc(=O)[nH]3)C[C@H]2C)cc(C)c1F [Compound 539, 3-((1S,2R)-1-(2-((4R,7S)-3-(3-(4-fluoro-1-methyl-1H-indazol-5-yl)-2-oxo-2,3-dihydro-1H-imidazol-1-yl)-2-(4-fluoro-3,5-dimethylphenyl)-2,4,5,6,7,8-hexahydro-4,7-epiminocyclohepta [c]pyrazole-9-carbonyl)-5-((S)-4-oxaspiro[2.5]octan-7-yl)-1H-indol-1-yl)-2-methylcyclopropyl)-1,2,4-oxadiazol-5 (4H)-one]"
3,≥ 10,"Cc1cc(-n2nc3c(c2-n2ccn(-c4ccc5c(cnn5C)c4F)c2=O)[C@H]2CC[C@@H](C3)N2C(=O)c2cc3cc([C@@H]4CCOC5(CC5)C4)ccc3n2[C@@]2(c3noc(=O)[nH]3)C[C@H]2C)cc(C)c1F [Compound 540, 3-((1S,2R)-1-(2-((4R,7S)-3-(3-(4-fluoro-1-methyl-1H-indazol-5-yl)-2-oxo-2,3-dihydro-1H-imidazol-1-yl)-2-(4-fluoro-3,5-dimethylphenyl)-2,4,5,6,7,8-hexahydro-4,7-epiminocyclohepta [c]pyrazole-9-carbonyl)-5-((R)-4-oxaspiro[2.5]octan-7-yl)-1H-indol-1-yl)-2-methylcyclopropyl)-1,2,4-oxadiazol-5 (4H)-one]"
4,≥ 10,"Cc1cc(-n2nc3c(c2-n2ccn(-c4ccc5c(cnn5C)c4F)c2=O)[C@@H]2CC[C@H](C3)N2C(=O)c2cc3cc([C@@H]4CCOC5(CC5)C4)ccc3n2[C@@]2(c3noc(=O)[nH]3)C[C@H]2C)cc(C)c1F [Compound 541, 3-((1S,2R)-1-(2-((4S,7R)-3-(3-(4-fluoro-1-methyl-1H-indazol-5-yl)-2-oxo-2,3-dihydro-1H-imidazol-1-yl)-2-(4-fluoro-3,5-dimethylphenyl)-2,4,5,6,7,8-hexahydro-4,7-epiminocyclohepta [c]pyrazole-9-carbonyl)-5-((R)-4-oxaspiro[2.5]octan-7-yl)-1H-indol-1-yl)-2-methylcyclopropyl)-1,2,4-oxadiazol-5 (4H)-one]"
5,0.307,"Cc1cc(-n2nc3c(c2-n2ccn(-c4ccc5c(c4)N(C)C(=O)C54CC4)c2=O)[C@@H]2CCC[C@H](C3)N2C(=O)c2cc3cc([C@H]4CCOC(C)(C)C4)ccc3n2[C@@]2(c3noc(=O)[nH]3)C[C@@H]2C)cc(C)c1F [Compound 545, 3-[(1S,2S)-1-[5-[(4S)-2,2-dimethyltetrahydropyran-4-yl]-2-[(1S,8R)-4-(4-fluoro-3,5-dimethyl-phenyl)-3-[3-(l′-methyl-2′-oxo-spiro[cyclopropane-1,3′-indoline]-6′-yl)-2-oxo-imidazol-1-yl]-4,5,12-triazatricyclo[6.3.1.02,6]dodeca-2,5-diene-12-carbonyl]indol-1-yl]-2-methyl-cyclopropyl]-4H-1,2,4-oxadiazol-5-one]"
6,≥ 10,"Cc1cc(-n2nc3c(c2-n2ccn(-c4ccc5c(cnn5C)c4F)c2=O)CN(C(=O)c2cc4cc([C@H]5CCOC(C)(C)C5)ccc4n2[C@@]2(c4noc(=O)[nH]4)C[C@@H]2C)[C@@H](C)CC3)cc(C)c1F [Compound 601, 3-[(1S,2S)-1-[5-[(4S)-2,2-dimethyltetrahydropyran-4-yl]-2-[(6S)-2-(4-fluoro-3,5-dimethyl-phenyl)-3-[3-(4-fluoro-1-methyl-indazol-5-yl)-2-oxo-imidazol-1-yl]-6-methyl-4,6,7,8-tetrahydropyrazolo[4,3-c]azepine-5-carbonyl]indol-1-yl]-2-methyl-cyclopropyl]-4H-1,2,4-oxadiazol-5-one]"
7,1.1,"Cc1cc(-n2nc3c(c2-n2ccn(-c4ccc5ccncc5c4F)c2=O)[C@@H]2CCC[C@H](C3)N2S(=O)(=O)c2cc3cc([C@H]4CCOC(C)(C)C4)ccc3n2[C@@]2(c3noc(=O)[nH]3)C[C@@H]2C)cc(C)c1F [Compound 602, 3-[(1S,2S)-1-[5-[(4S)-2,2-dimethyltetrahydropyran-4-yl]-2-[[(1S,8R)-4-(4-fluoro-3,5-dimethyl-phenyl)-3-[3-(8-fluoro-7-isoquinolyl)-2-oxo-imidazol-1-yl]-4,5,12-triazatricyclo[6.3.1.02,6]dodeca-2,5-dien-12-yl]sulfonyl]indol-1-yl]-2-methyl-cyclopropyl]-4H-1,2,4-oxadiazol-5-one]"
